# In patent US4737519A, “Substituted naphthalenes, indoles, benzofurans, and benzothiophenes as lipoxygenase inhibitors” (The Upjohn Company, priority 1986, dated 1988):
# Key:
# SRS-A = SRS-A synthesis inhibition in rat mononuclear cells incubated with cysteine and challenged with calcium ionophore; assay type: cell-based; conditions: 10 micrograms/ml
# Experimental: This test is conducted in rat mononuclear cells incubated in the presence of cysteine and challenged with a calcium ionophore (which induces SRS-A formation). Among the nonamino compounds of this invention, in this test system, 1-acetoxy-2-n-butyl-4-methoxynaphthalene (Example 3) and 1-acetoxy-2,3-diethyl-4-methoxynaphthalene (Example 4) are preferred.
# lipoxygenase = lipoxygenase inhibition, oxygen uptake of washed human platelets with arachidonic acid; assay type: cell-based; conditions: for inhibition of 5-HETE production: 10 μm
# Experimental: The compounds of the present invention were also tested for lipoxygenase inhibition. Arachidonic acid is added to washed human platelets and the oxygen uptake is measured using oxygraph cells. A decrease of oxygen uptake versus the control cell indicates inhibition of lipoxygenase. For a full description of the procedure see, Wallach, et al., Biochim. Biophys. Acta. 231: 445 (1976).
# mucous secretion = test: canine tracheal mucous secretion (hillock count); assay type: in vivo, mongrel dogs
# Experimental: Mongrel dogs (weight 18-35 kg) were anesthetized with a mixture of chloralose (100 mg/kg) and urethane (500 mg/kg) via intravenous injection. The animals were secured to a surgery table, ventral side up, and the neck and inner right hind limb were shaved. A ventral midline incision was made in the neck using a Bovie CSVII electrosurgical unit, starting from the papillae (interramal) to the clavicle thus exposing the trachea. An endotracheal tube was secured into the lower trachea. The animals were then connected via the endotracheal tube to a Harvard respirator (Model 607A) that delivered room air at a constant tidal volume and frequency. Two polyethylene catheters were connected to the endotracheal tube, and one was connected to a medical gas analyzer (Beckman, Model LB-2) that continuously measured the carbon dioxide (CO2) content of the expired air for determination of end tidal CO2. The other was connected to a pressure transducer (Statham, Model PMI 131TC+2.5-350) for the measurement of airway press ure.
# A second incision made in the inner right hind limb to expose the femoral artery and vein was made for the catheterization of these large vessels. A polyethylene catheter was tied into the artery and connected to a pressure transducer (Statham, Model P231D) for the measurement of blood pressure. This catheter also allowed for samples of arterial blood to be collected for measurements of blood gas tension using a blood gas analyser (Corning, Model 175). Another polyethylene catheter was tied into the femoral vein which was used for injecting additional anesthetic and paralyzing drugs. Gallamine triethiodide (20-40 mg) was used to paralyze the respiratory muscles and a single injection of sodium bicarbonate 7.5% (0.5 mg/kg) in conjunction with a continuous i.v. drip of 5% dextrose in 0.9% saline helped to maintain fluid balance. All physiological measurements were recorded and monitored on a polygraph (Grass instruments, Model 7D). Once the femoral cutdown was completed, surgery on the neck region resumed. The carotid artery was exposed and the "knuckle" (a portion of the carotid which bisects to supply blood flow to the trachea and neck muscles) was located. A small polyethylene catheter was then inserted into the muscular branch of the cranial thyroid artery (CTA). This allowed for close arterial injection of experimental agents. The strap muscles were removed and the mucosal surface of the trachea exposed by cutting along the anterior midline of the upper two-thirds of the extrathoracic trachea and pulling the cut edges widely apart. The exposed mucosa was checked for proper canulation by blanching and appropriate adjustments of the canula into the CTA were made until blanching was achieved.
# Isometric tension measurements of the trachealis muscle were recorded by suturing a rigid, plastic bar to the (15) cartilaginous rings of the cut edges of the trachea, and connecting one side to a fixed restraint and the contralateral side to a force displacement transducer (Grass, Model FT 03C). An initial tension of 25-30 g/cm of trachea was applied to the muscle, and it was allowed to stabilize for 45 min. An initial zero tension point was determined before agonists were injected into the CTA, and the zero was readjusted after agonist injections.
# To visualize secretions coming from the submucosal gland duct openings of the trachea, powdered tantalum, an inert metal (2-5 microns in size) was sprayed on the trachea until it formed a uniform layer over the mucosal surface. The tantalum itself did nothing to normal secretion, but prevented the normal ciliary dispersion of secretions from the gland duct openings; these secretions, therefore, caused elevations ("hillocks") in the tantalum layer. The number of hillocks formed in a 1.2 cm^2 field, 1-2 cm from the larynx, were counted and their images were recorded with a video camera (Hitachi CCTV, Model HV-17TU) mounted on a dissecting microscrope (Zeiss Ompi-1) with a beam splitter. […]
# deep vein thrombosis = test: deep vein thrombosis: jugular vein stasis in cats, scanning electron microscopy; assay type: in vivo, domestic short hair cats
# Experimental: Nine adult domestic short hair cats weighing 4.5-5 kg were anesthetized with sodium pentabarbital (25-30 mg/kg i.v.). The neck area was prepared for a sterile cut down procedure and the jugular veins were exposed. After exposure of the veins each animal was injected with epsilon amino caproic acid (eaca) to inhibit plasminogen activation (2.5 grams i.v. in Tyrode's solution). […] Six of the cats were also treated with 2,3-diethyl-4-methoxy-1-naphthalenol, acetate. Three of the cats were given 1 mg/kg i.v. and 3 of the cats were treated with 5 mg/kg i.v. prior to venous occlusion. The jugular veins were carefully dissected free of surrounding connective tissue and the vein was ligated at the thoracic inlet with 3-0 dexon. The skin incision was closed and the animals were maintained in surgical anesthesia for 2 hours. At the end of the 2 hour waiting period, the jugular veins were exposed again. A 25 gauge butterfly needle was positioned into the lumen and blood was flushed out of the vein with heparinized Tyrode's solution (1U heparin/ml). The veins were tied off and removed under physiologic pressure. The vessels were immediately immersed in a 2.5% glutaraldehyde solution prepared in Tyrode's solution for fixation. The veins were fixed overnight at 5 degrees centigrade, postfixed in 1% osmium tetroxide overnight, dehydrated in ethanol and substituted by amyl acetate. All veins were critical point dried from carbon dioxide using a Denton DCP-1 critical point drying apparatus. The veins were mounted on stubas, gold coated on a Denton DV-502 modified vacuum evaporator and examined on a Cambridge Stereoscan 150 scanning electron microscope.
# Two hours of jugular vein stasis following the trauma of dissection caused massive white cell adhesion to and migration under the venous endothelium of non-treated cats and produced sloughing of the endothelium and exposure of the basement membrane. This damage was sufficient to initiate thrombosis. Many of the exposed areas of basement membrane had adherent platelets. The platelets were adherent as monolayers or as aggregates. In some areas fibrin was found deposited on the endothelium or exposed basement membrane. Leukocytes were occasionally associated with the fibrin.
# tracheal mucus velocity = conditions: given prior to antigen challenge, patients with a history of bronchial asthma; cited from earlier work
# leukotriene synthesis = test: inhibition of leukotriene synthesis (standard laboratory test); assay type: cell-based
# Experimental: Certain of the amino acyl compounds of this invention (when R3 is --C(O)--(CR17 R18)m --(CH2)n --NR14 R15, --C(O)--AA or --C(O)--PhX--NH2) were evaluated in a standard laboratory test to measure the inhibition of leukotriene synthesis. Four of the amino-type compounds of this invention were preferred in this test. Specifically, in this test system, L-Valine, 2,3-diethyl-4-methoxynaphth-1-yl ester, hydrochloride; L-Valine, 2-n-butyl-4-methoxynaphth-1-yl ester; L-Valine, 2-n-butyl-4-methoxynaphth-1-yl ester, hydrochloride; and L-Alanine, 2-n-butyl-4-methoxynaphth-1-yl ester were preferred.
# human airways = conditions: in vitro; cited from earlier work
# canine tracheas = conditions: in vivo; cited from earlier work
# [1] = 1.0 mg/kg oral, predose time 3.5 hr, n=2, ↑ indicates stimulation
# [2] = 5 mg/kg oral, predose time 3.5 hr, n=2
# [3] = 1.0%, inhalation, n=6, ***p<0.0001
compound,measurement,setting,value
"CCCCc1cc(OC)c2ccccc2c1OC(C)=O [Example 3, 2-Butyl-4-methoxy-1-naphthalenol, acetate]",inhibition at 10 µg/mL,SRS-A,100%
same,inhibition of 5-HETE production,lipoxygenase,completely inhibiting
same,IC50,"lipoxygenase; lipoxygenase system, washed human platelets",~100 nM
same,"% Inhibition of Agonist Response, Indo/AA","mucous secretion; 0.001%, inhalation, n=4, **p<0.005",100%
same,"% Inhibition of Agonist Response, Hypoxia","mucous secretion; 0.001%, inhalation, n=4, *p<0.05",87%
same,"% Inhibition of Agonist Response, Baseline: stimulation (.uparw.)","mucous secretion; 0.001%, inhalation, n=4, ↑ indicates stimulation",24%
same,"% Inhibition of Agonist Response, Indo/AA","mucous secretion; 1.0 mg/kg oral, predose time 3.5 hr, n=2",50%
same,"% Inhibition of Agonist Response, Baseline: stimulation (.uparw.)",mucous secretion; [1],6%
same,"% Inhibition of Agonist Response, Hypoxia: stimulation (.uparw.)",mucous secretion; [1],11%
same,"% Inhibition of Agonist Response, Indo/AA","mucous secretion; 1.0 mg/kg oral, predose time 5.0 hr, n=2, *p<0.05",62%
same,"% Inhibition of Agonist Response, Hypoxia",mucous secretion; [2],49%
same,"% Inhibition of Agonist Response, Indo/AA",mucous secretion; [2],69%
same,"% Inhibition of Agonist Response, Baseline: stimulation (.uparw.)","mucous secretion; 5 mg/kg oral, predose time 3.5 hr, n=2, ↑ indicates stimulation",30%
same,"% Inhibition of Agonist Response, Indo/AA","mucous secretion; 5 mg/kg oral, predose time 4.5 hr, n=2",95%
same,"% Inhibition of Agonist Response, Baseline","mucous secretion; 0.01%, inhalation, n=5",19%
same,"% Inhibition of Agonist Response, Hypoxia","mucous secretion; 0.01%, inhalation, n=5",91%
same,"% Inhibition of Agonist Response, Indo/AA","mucous secretion; 0.01%, inhalation, n=5, **p<0.005",100%
same,"% Inhibition of Agonist Response, Hypoxia","mucous secretion; 10 mg/kg oral, predose time 3 hr, n=2",94%
same,"% Inhibition of Agonist Response, Indo/AA","mucous secretion; 10 mg/kg oral, predose time 3 hr, n=2, *p<0.05",100%
same,"% Inhibition of Agonist Response, Baseline: stimulation (.uparw.)","mucous secretion; 10 mg/kg oral, predose time 3 hr, n=2, ↑ indicates stimulation",5%
same,"% Inhibition of Agonist Response, Indo/AA","mucous secretion; 10 mg/kg oral, predose time 4 hr, n=2, *p<0.05",100%
same,"% Inhibition of Agonist Response, Indo/AA","mucous secretion; 10 mg/kg oral, predose time 5 hr, n=2, *p<0.05",100%
same,"% Inhibition of Agonist Response, Baseline","mucous secretion; 0.1%, inhalation, n=4",23%
same,"% Inhibition of Agonist Response, Indo/AA","mucous secretion; 0.1%, inhalation, n=4, **p<0.005",100%
same,"% Inhibition of Agonist Response, Hypoxia","mucous secretion; 0.1%, inhalation, n=4, *p<0.05",96%
same,"% Inhibition of Agonist Response, Baseline","mucous secretion; 1.0%, inhalation, n=6",6%
same,"% Inhibition of Agonist Response, Hypoxia",mucous secretion; [3],100%
same,"% Inhibition of Agonist Response, Indo/AA",mucous secretion; [3],100%
same,effect on baseline secretion and on enhanced mucus secretion due to hypoxia or arachidonic acid,mucous secretion; mongrel dog model,effective in blocking baseline secretion in a dose dependent fashion as well as enhanced mucus secretion due to hypoxia or arachidonic acid administration
"CCc1c(CC)c(OC(C)=O)c2ccccc2c1OC [Example 4, 2,3-Diethyl-4-methoxy-1-naphthalenol, acetate]",inhibition at 10 µg/mL,SRS-A,95%
same,inhibition of 5-HETE production,lipoxygenase,completely inhibiting
same,areas with detached endothelial cells or exposed basement membrane,deep vein thrombosis; 1 mg/kg i.v.,Few areas with detached endothelial cells or exposed basement membrane
same,leukocyte adhesion or migration,deep vein thrombosis; 1 mg/kg i.v.,did not reduce leukocyte adhesion or migration
same,leukocyte release of hydrolytic enzymes and production of superoxides,deep vein thrombosis; 1 mg/kg i.v.,apparently inhibited
same,areas of adherent leukocytes,deep vein thrombosis; 5 mg/kg i.v.,only patchy areas of adherent leukocytes were observed
same,fibrin deposition,deep vein thrombosis; 5 mg/kg i.v.,Only occasional small areas of fibrin deposition
same,inhibitory effect on leukocyte mediated damage,"deep vein thrombosis; 5 mg/kg i.v., compared with 1 mg/kg",even greater inhibitory effect on leukocyte mediated damage
same,numbers of adhering and migrating leukocytes,"deep vein thrombosis; 5 mg/kg i.v., compared with control or 1 mg/kg group",appeared to be less
same,vascular surface with intact endothelial cell cover and few adherent leukocytes,"deep vein thrombosis; 5 mg/kg i.v., with the exception of one vein",approximately half or more of the vascular surface
same,effect on the vascular changes,deep vein thrombosis; 1 and 5 mg/kg i.v. prior to venous occlusion,dose dependent effect on the vascular changes
CCCc1c(OCC(O)COc2ccc3c(=O)cc(C(=O)O)oc3c2CCC)ccc(C(C)=O)c1O (stereo not drawn) [FPL 55712],reversing the tracheal mucus velocity,tracheal mucus velocity,effective in reversing the tracheal mucus velocity
"CCCCc1cc(OC)c2ccccc2c1OC(=O)[C@H](C)N [L-Alanine, 2-n-butyl-4-methoxynaphth-1-yl ester]",inhibition at 1 µg/mL,leukotriene synthesis; 1 microgram/ml,98%
same,inhibition of synthesis of leukotriene,leukotriene synthesis; 10 micrograms/ml,completely inhibited
"CCc1c(CC)c(OC(=O)[C@@H](N)C(C)C)c2ccccc2c1OC.Cl [L-Valine, 2,3-diethyl-4-methoxynaphth-1-yl ester, hydrochloride]",inhibition at 1 µg/mL,leukotriene synthesis; 1 microgram/ml,100%
same,inhibition of synthesis of leukotriene,leukotriene synthesis; 10 micrograms/ml,completely inhibited
"CCCCc1cc(OC)c2ccccc2c1OC(=O)[C@@H](N)C(C)C.Cl [L-Valine, 2-n-butyl-4-methoxynaphth-1-yl ester, hydrochloride]",inhibition of synthesis of leukotriene,leukotriene synthesis; 1 microgram/ml,93%
same,inhibition of synthesis of leukotriene,leukotriene synthesis; 10 micrograms/ml,completely inhibited
"CCCCc1cc(OC)c2ccccc2c1OC(=O)[C@@H](N)C(C)C [L-Valine, 2-n-butyl-4-methoxynaphth-1-yl ester]",inhibition at 1 µg/mL,leukotriene synthesis; 1 microgram/ml,97%
same,inhibition of synthesis of leukotriene,leukotriene synthesis; 10 micrograms/ml,completely inhibited
"CCCCC/C=C\C\C=C/C=C/C=C/[C@@H](SC[C@H](N)C(=O)NCC(=O)O)[C@@H](O)CCCC(=O)O [LTD4, leukotriene D4]",release of mucus from human airways,human airways,increase the release of mucus
same,release of mucus from canine tracheas,canine tracheas,increase the release of mucus
"COc1ccc2c(c1)c(CC(=O)O)c(C)n2C(=O)c1ccc(Cl)cc1 [indomethacin, reference compound]",block of normal baseline secretion,"mucous secretion; indomethacin 5 mg/kg pretreatment, at least 30 minutes",about 20%
same,block of the effect of arachidonate alone,"mucous secretion; indomethacin 5 mg/kg pretreatment, arachidonate 1.0 mg in the CTA",nicely blocked the effect of arachidonate alone
monohydroxyeicosatetraenoic acid,release of mucus from human airways,human airways,release mucus from human airway
